Measured values from patent US8080657B2, “Compounds of reverse turn mimetics and the use thereof” (Choongwae Pharma Corporation, priority 2008, dated 2011).

system: Wnt signaling; experiment: TopFlash reporter gene bioassay in SW480 cells; format: cell-based; settings: Homo sapiens, SW480, TopFlash reporter gene assay, inhibition of Wnt signaling; read-out: RGA, IC50 (μM) TopF

First: C=CCN1CC(=O)N2[C@@H](Cc3ccc(O)cc3)C(=O)N(Cc3cccc(C(=O)NCC4CCCO4)c3)C[C@@H]2N1C(=O)NCc1ccccc1 (stereo partly shown) [compound 106]
Second: C=CCN1CC(=O)N2[C@@H](Cc3ccc(O)cc3)C(=O)N(Cc3cccc(C(=O)NN)c3)C[C@@H]2N1C(=O)NCc1ccccc1 [compound 160]
The IC50 of the first is 11-fold lower: 1.28 ± 0.1 µM for the first, 14.2 ± 2.05 µM for the second.

First: C=CCN1CC(=O)N2[C@@H](Cc3ccc(O)cc3)C(=O)N(Cc3ccc(F)c4scnc34)C[C@@H]2N1C(=O)NCc1cccs1 [compound 107]
Second: C=CCN1CC(=O)N2[C@@H](Cc3ccc(O)cc3)C(=O)N(Cc3ccc(F)c4scnc34)C[C@@H]2N1C(=O)NCc1ccccc1F [compound 158]
The IC50 of the first is 9.6-fold lower: 1.3 ± 0.2 µM for the first, 12.5 ± 2.66 µM for the second. The first is the more potent here.

C=CCN1CC(=O)N2[C@@H](Cc3ccc(O)cc3)C(=O)N(Cc3cccnc3C3CC3)C[C@@H]2N1C(=O)NCc1ccccc1 [compound 108] and C=CCN1CC(=O)N2[C@@H](Cc3ccc(O)cc3)C(=O)N(Cc3cccnc3Br)C[C@@H]2N1C(=O)NCc1ccccc1 [compound 125] are within error of each other in IC50: 1.31 ± 0.33 µM for the first, 1.57 ± 0.29 µM for the second.

C=CCN1CC(=O)N2[C@@H](Cc3ccc(O)cc3)C(=O)N(Cc3cccc(N(C)C(=O)OC)c3)C[C@@H]2N1C(=O)NCc1ccccc1 [compound 109] and C=CCN1CC(=O)N2[C@@H](Cc3ccc(O)cc3)C(=O)N(Cc3cccc(N(C)C=O)c3)C[C@@H]2N1C(=O)NCc1ccccc1 [compound 113] are within error of each other in IC50: 1.35 ± 0.15 µM for the first, 1.41 ± 0.38 µM for the second.

C=CCN1CC(=O)N2[C@@H](Cc3ccc(O)cc3)C(=O)N(Cc3csc4cc(NC=O)ccc34)C[C@@H]2N1C(=O)NCc1ccccc1 [compound 111] and C=CCN1CC(=O)N2[C@@H](Cc3ccc(O)cc3)C(=O)N(Cc3csc4cc(NC(C)=O)ccc34)C[C@@H]2N1C(=O)NCc1ccccc1 [compound 142] are within 1.5-fold of each other in IC50: 1.41 ± 0.21 µM for the first, 1.92 ± 0.28 µM for the second.

C=CCN1CC(=O)N2[C@@H](Cc3ccc(O)cc3)C(=O)N(Cc3cccc(C(=O)N4CCCCC4)c3)C[C@@H]2N1C(=O)NCc1ccccc1 [compound 114] and C=CCN1CC(=O)N2[C@@H](Cc3ccc(O)cc3)C(=O)N(Cc3cccc(C(=O)NCCC4=CCCCC4)c3)C[C@@H]2N1C(=O)NCc1ccccc1 [compound 130] are within error of each other in IC50: 1.42 ± 0.51 µM for the first, 1.66 ± 0.18 µM for the second.

C=CCN1CC(=O)N2[C@@H](Cc3ccc(O)cc3)C(=O)N(Cc3cccc(-c4ccccc4O)c3)C[C@@H]2N1C(=O)NCc1ccccc1 [compound 115] and C=CCN1CC(=O)N2[C@@H](Cc3ccc(O)cc3)C(=O)N(Cc3cccc(-c4ccccc4OC)c3)C[C@@H]2N1C(=O)NCc1ccccc1 [compound 127] are within error of each other in IC50: 1.43 ± 0.27 µM for the first, 1.61 ± 0.31 µM for the second.

C=CCN1CC(=O)N2C(CN(Cc3cccc(C#CC(C)(C)C)n3)C(=O)[C@@H]2Cc2ccc(O)cc2)N1C(=O)NCc1ccccc1 (stereo partly shown) [compound 116] and C=CCN1CC(=O)N2[C@@H](Cc3ccc(O)cc3)C(=O)N(Cc3cccc(C#N)c3)C[C@@H]2N1C(=O)NCc1ccccc1 [compound 132] are within error of each other in IC50: 1.43 ± 0.26 µM for the first, 1.71 ± 0.28 µM for the second.

C=CCN1CC(=O)N2[C@@H](Cc3ccc(O)cc3)C(=O)N(Cc3ccc(OC)c(Cl)c3)C[C@@H]2N1C(=O)NCc1ccccc1 [compound 117] and C=CCN1CC(=O)N2[C@@H](Cc3ccc(O)cc3)C(=O)N(Cc3ccc(OC)c(Br)c3)C[C@@H]2N1C(=O)NCc1ccccc1 [compound 129] are within error of each other in IC50: 1.44 ± 0.22 µM for the first, 1.64 ± 0.27 µM for the second.

C=CCN1CC(=O)N2[C@@H](Cc3ccc(O)cc3)C(=O)N(Cc3cccc(C(=O)O)c3)C[C@@H]2N1C(=O)NCc1ccc(Cl)cc1Cl [compound 119] and C=CCN1CC(=O)N2[C@@H](Cc3ccc(O)cc3)C(=O)N(Cc3cccc(Cl)c3N(C)C)C[C@@H]2N1C(=O)NCc1ccccc1 [compound 122] are within error of each other in IC50: 1.51 ± 0.16 µM for the first, 1.54 ± 0.07 µM for the second.

C=CCN1CC(=O)N2[C@@H](Cc3ccc(O)cc3)C(=O)N(Cc3cccc(-c4ccc(OC)nc4)c3)C[C@@H]2N1C(=O)NCc1ccccc1 [compound 121] and C=CCN1CC(=O)N2[C@@H](Cc3ccc(O)cc3)C(=O)N(Cc3cccc(-c4ccc(OC)cc4)c3)C[C@@H]2N1C(=O)NCc1ccccc1 [compound 140] are within error of each other in IC50: 1.53 ± 0.17 µM for the first, 1.91 ± 0.24 µM for the second.

First: C=CCOc1ccc(CN2C[C@H]3N(C(=O)CN(CC=C)N3C(=O)NCc3ccccc3)[C@@H](Cc3ccc(O)cc3)C2=O)cc1 [compound 123]
Second: C=CCN1CC(=O)N2[C@@H](Cc3ccc(O)cc3)C(=O)N(Cc3ccc(OCCCCC)cc3)C[C@@H]2N1C(=O)NCc1ccccc1 [compound 154]
The IC50 of the first is 7.6-fold lower: 1.55 ± 0.21 µM for the first, 11.8 ± 0.9 µM for the second.

C=CCN1CC(=O)N2[C@@H](Cc3ccc(O)cc3)C(=O)N(Cc3cccc4c3OC(F)(F)O4)C[C@@H]2N1C(=O)NCc1ccccc1 [compound 124] and C=CCOc1ccccc1CN1C[C@H]2N(C(=O)CN(CC=C)N2C(=O)NCc2ccccc2)[C@@H](Cc2ccc(O)cc2)C1=O [compound 145] are within error of each other in IC50: 1.56 ± 0.33 µM for the first, 1.96 ± 0.27 µM for the second.

C=CCN1CC(=O)N2[C@@H](Cc3ccc(O)cc3)C(=O)N(Cc3cccc(-c4cccc(C#N)c4)c3)C[C@@H]2N1C(=O)NCc1ccccc1 [compound 126] and C=CCN1CC(=O)N2[C@@H](Cc3ccc(O)cc3)C(=O)N(Cc3cccc(-c4cccc(OC)c4)c3)C[C@@H]2N1C(=O)NCc1ccccc1 [compound 137] are within error of each other in IC50: 1.58 ± 0.27 µM for the first, 1.86 ± 0.3 µM for the second.

C=CCN1CC(=O)N2[C@@H](Cc3ccc(O)cc3)C(=O)N(Cc3ccccc3N(C)Cc3ccccc3)C[C@@H]2N1C(=O)NCc1ccccc1 [compound 128] and C=CCN1CC(=O)N2[C@@H](Cc3ccc(O)cc3)C(=O)N(Cc3cccc(-c4ccccc4)c3)C[C@@H]2N1C(=O)NCc1ccccc1 [compound 144] are within error of each other in IC50: 1.61 ± 0.59 µM for the first, 1.94 ± 0.48 µM for the second.

C=CCN1CC(=O)N2[C@@H](Cc3ccc(O)cc3)C(=O)N(Cc3cccc(C(=O)OC)c3[N+](=O)[O-])C[C@@H]2N1C(=O)NCc1ccccc1 [compound 131] and C=CCOc1c(CN2C[C@H]3N(C(=O)CN(CC=C)N3C(=O)NCc3ccccc3)[C@@H](Cc3ccc(O)cc3)C2=O)cccc1C(C)(C)C [compound 143] are within error of each other in IC50: 1.66 ± 0.27 µM for the first, 1.93 ± 0.18 µM for the second.

C=CCN1CC(=O)N2[C@@H](Cc3ccc(O)cc3)C(=O)N(Cc3cccc(-c4ccc(OC)cc4)n3)C[C@@H]2N1C(=O)NCc1ccccc1 [compound 134] and C=CCN1CC(=O)N2[C@@H](Cc3ccc(O)cc3)C(=O)N(Cc3cccc(-c4ccc(F)cc4)n3)C[C@@H]2N1C(=O)NCc1ccccc1 [compound 141] are within error of each other in IC50: 1.73 ± 0.35 µM for the first, 1.91 ± 0.28 µM for the second.

First: C=CCN1CC(=O)N2[C@@H](Cc3ccc(O)cc3)C(=O)N(Cc3cccc(C(=O)NCCCOCCCC)c3)C[C@@H]2N1C(=O)NCc1ccccc1 [compound 135]
Second: C=CCN1CC(=O)N2[C@@H](Cc3ccc(O)cc3)C(=O)N(Cc3ccnc(C(N)=O)c3)C[C@@H]2N1C(=O)NCc1ccccc1 [compound 153]
The IC50 of the first is 6.1-fold lower: 1.77 ± 0.15 µM for the first, 10.8 ± 1.97 µM for the second.

Going from C=CCN1CC(=O)N2[C@@H](Cc3ccc(O)cc3)C(=O)N(Cc3cccc(OC)c3OC3CCCC3)C[C@@H]2N1C(=O)NCc1ccccc1 [compound 139] to C=CCN1CC(=O)N2[C@@H](Cc3ccc(O)cc3)C(=O)N(Cc3cccc(OC)c3OS(=O)(=O)CCCCCCCC)C[C@@H]2N1C(=O)NCc1ccccc1 [compound 161], the IC50 rises from 1.89 ± 0.38 µM to 14.4 ± 2.77 µM (7.6-fold).

Compared with C=CCN1CC(=O)N2[C@@H](Cc3ccc(O)cc3)C(=O)N(Cc3cccc(Oc4ccccc4)c3)C[C@@H]2N1C(=O)NCc1ccccc1 [compound 146], C=CCN1CC(=O)N2[C@@H](Cc3ccc(O)cc3)C(=O)N(Cc3cccc(-c4ccc[nH]c4=O)c3)C[C@@H]2N1C(=O)NCc1ccccc1 [compound 156] is 6.1-fold higher in IC50: 1.99 ± 0.12 µM for the first, 12.2 ± 2.02 µM for the second. The first is the more potent here.

First: C=CCN1CC(=O)N2[C@@H](Cc3ccc(ON)cc3)C(=O)N(Cc3ccc(OC)c(Cl)c3)C[C@@H]2N1C(=O)NCc1ccccc1 [compound 147]
Second: C=CCN1CC(=O)N2[C@@H](Cc3ccc(OS(=O)(=O)NC)cc3)C(=O)N(Cc3ccc(F)cc3F)C[C@@H]2N1C(=O)NCc1ccccc1 [compound 151]
The IC50 of the first is 5.1-fold lower: 1.99 ± 0.32 µM for the first, 10.2 ± 2.3 µM for the second. The first is the more potent here.

C=CCN1CC(=O)N2[C@@H](Cc3ccc(O)cc3)C(=O)N(C/C=C/c3ccccc3)C[C@@H]2N1C(=O)NCc1ccccc1 [compound 149] and C=CCN1CC(=O)N2[C@@H](Cc3ccc(O)cc3)C(=O)N(Cc3cn(CCC)c4ccccc34)C[C@@H]2N1C(=O)NCc1ccccc1 [compound 159] are within error of each other in IC50: 10.1 ± 2.38 µM for the first, 14.1 ± 2.3 µM for the second.

First: C=CCN1CC(=O)N2[C@@H](Cc3ccc(O)cc3)C(=O)N(Cc3cc(C(C)(C)C)cc(C(C)(C)C)c3OC)C[C@@H]2N1C(=O)NCc1ccccc1 [compound 150]
Second: C=CCN1CC(=O)N2[C@@H](Cc3ccc(O)cc3)C(=O)N(Cc3cc(C(C)(C)C)cc(C(C)(C)C)c3)C[C@@H]2N1C(=O)NCc1ccccc1 [compound 163]
The IC50 of the first is 1.5-fold lower: 10.2 ± 1.55 µM for the first, 15.7 ± 1.87 µM for the second. The first is the more potent here.

C=CCN1CC(=O)N2[C@@H](Cc3ccc(O)cc3)C(=O)N(Cc3csc4cc(NC(=O)NC)ccc34)C[C@@H]2N1C(=O)NCc1ccccc1 [compound 155] and C=CCN1CC(=O)N2[C@@H](Cc3ccc(NC(N)=O)cc3)C(=O)N(Cc3cccc4scnc34)C[C@@H]2N1C(=O)NCc1ccccc1 [compound 162] are within error of each other in IC50: 11.8 ± 1.61 µM for the first, 15.1 ± 3.34 µM for the second.

With C=CCN1CC(=O)N2[C@@H](Cc3ccc(O)cc3)C(=O)N(Cc3ccccc3-n3cnnn3)C[C@@H]2N1C(=O)NCc1ccccc1 [compound 164] the IC50 was 15.7 ± 3.22 µM.

same assay, conditions: Homo sapiens, SW480, read-out: RGA, IC50 (μM) TopF

For C=CCN1CC(=O)N2[C@@H](Cc3ccc(O)cc3)C(=O)N(Cc3csc4c([N+](=O)[O-])cccc34)C[C@@H]2N1C(=O)NCc1ccccc1 [compound 148], the IC50 was 10 ± 1.7 µM.

same assay, conditions: Homo sapiens, SW480; read-out: RGA, IC50 (μM) TopF

C=CCN1CC(=O)N2[C@@H](Cc3ccc(OP(=O)(O)O)cc3)C(=O)N(Cc3ccccc3N3CCCC3)C[C@@H]2N1C(=O)NCc1ccccc1 [compound 112] and C=CCOc1ccc(CN2C[C@H]3N(C(=O)CN(CC=C)N3C(=O)NCc3ccccc3)[C@@H](Cc3ccc(OP(=O)(O)O)cc3)C2=O)cc1 [compound 136] are within error of each other in IC50: 1.41 ± 0.21 µM for the first, 1.83 ± 0.32 µM for the second.

same assay, conditions: TopFlash reporter gene assay, inhibition of Wnt signaling; read-out: RGA, IC50 (μM) TopF

C=CCN1CC(=O)N2[C@@H](Cc3ccc(O)cc3)C(=O)N(Cc3cccc(-c4nccs4)c3)C[C@@H]2N1C(=O)NCc1ccccc1 [compound 133] and C=CCN1CC(=O)N2[C@@H](Cc3ccc(O)cc3)C(=O)N(Cc3csc4cc(NCc5ccccc5)ccc34)C[C@@H]2N1C(=O)NCc1ccccc1 [compound 138] are within error of each other in IC50: 1.73 ± 0.22 µM for the first, 1.86 ± 0.38 µM for the second.

C=CCN1CC(=O)N2[C@@H](Cc3ccc(O)cc3)C(=O)N(Cc3csc4cc(NC(=O)NC)ccc34)C[C@@H]2N1C(=O)NCc1ccccc1 [compound 157] showed an IC50 of 12.4 ± 2.36 µM.
